Literature values, collected in US7723036B2, “Assessing response to anti-CD20 therapy by genotyping C1q components” (The University of Iowa Research Foundation, priority 2005, dated 2010).
Structures can show the parent of a compound that is named as a salt.

Key:
[1] = in vivo
[2] = oral radioactive lomustine 30 mg/m^2 to 100 mg/m^2; within 24 hours
[3] = in vivo; remark: listed apart in the source

| oral absorption (in words) [1] | administered dose recovered in the feces after biliary excretion [3] | Compound | radioactivity given excreted in the form of degradation products [2] |
| --- | --- | --- | --- |
| poor | – | COc1cccc2c1C(=O)c1c(O)c3c(c(O)c1C2=O)C[C@@](O)(C(C)=O)C[C@@H]3O[C@H]1C[C@H](N)[C@H](O)[C@H](C)O1 [Daunorubicin, 5,12-Naphthacenedione, (8S-cis)-8-acetyl-10-((3-amino-2,3,6-trideoxy-a-L-lyxo-hexanopyranosyl)oxy)-7,8,9,10-tetrahydro-6,8,11-trihydroxy-10-methoxy-, hydrochloride] | – |
| absorbed poorly | – | COc1cccc2c1C(=O)c1c(O)c3c(c(O)c1C2=O)C[C@@](O)(C(=O)CO)C[C@@H]3O[C@H]1C[C@H](N)[C@H](O)[C@H](C)O1 [Doxorubicin, 5,12-Naphthacenedione, (8s-cis)-10-((3-amino-2,3,6-trideoxy-a-L-lyxo-hexopyranosyl)oxy)-7,8,9,10-tetrahydro-6,8,11-trihydroxy-8-(hydroxyacetyl)-1-methoxy-hydrochloride] | – |
| – | – | O=NN(CCCl)C(=O)NC1CCCCC1 [Lomustine, 1-(2-chloro-ethyl)-3-cyclohexyl-1 nitrosourea] | about half |
| Unpredictable absorption | – | CC[C@]1(O)C[C@H]2CN(CCc3c([nH]c4ccccc34)[C@@](C(=O)OC)(c3cc4c(cc3OC)N(C=O)[C@H]3[C@@](O)(C(=O)OC)[C@H](OC(C)=O)[C@]5(CC)C=CCN6CC[C@]43[C@@H]65)C2)C1 [Vincristine] | – |
| Unpredictable absorption | about 10% | CC[C@]1(O)C[C@@H]2CN(CCc3c([nH]c4ccccc34)[C@@](C(=O)OC)(c3cc4c(cc3OC)N(C)[C@H]3[C@@](O)(C(=O)OC)[C@H](OC(C)=O)[C@]5(CC)C=CCN6CC[C@]43[C@@H]65)C2)C1 [Vinblastine] | – |

| Compound | oral absorption (in words) [1] | administered dose recovered in the feces after biliary excretion [3] | radioactivity given excreted in the form of degradation products [2] |
| --- | --- | --- | --- |
| N.N.[Cl][Pt][Cl] [Cisplatin] | not absorbed orally | – | – |
| O=C(O)CCCc1ccc(N(CCCl)CCCl)cc1 [Chlorambucil, 4-(bis(2-chlorethyl)amino) benzenebutanoic acid] | rapidly and completely absorbed | – | – |
